Changes are numbered by the printed parent chain. Numbers in names are those of the source. Entries after “also recorded” stand apart in the source; their conditions may differ. No end group written: not given here.
Assays:
NCAM Ig1 domain = target: T1, NCAM Ig1 domain (Rattus norvegicus, UniProt P13596); test: Plasmon surface resonance analysis of binding to NCAM Ig1; details: dendrimer peptides immobilised on sensor chip CM5, Ig1 in solution, 25° C.
T1 construct: encoding amino acids 1-97 of rat NCAM; made in house; host or cells: Pichia pastoris strain His 4 GS-115 (pHIL-S1 plasmid)
Procedure: Real-time biomolecular interaction analysis was performed using a BIAlite instrument (Pharmacia Biosensor AB, Sweden). […] Binding of Ig1 to dendrimer peptides: […] of Ig1 or Ig1I at the indicated concentrations were applied. The chip was regenerated by two […] pulses of 5 mM NaOH. Two independent experiments were performed.

[1] = tested on: primary hippocampal neurones; test: Neurite outgrowth from single primary hippocampal neurones (length of longest neurite, image analysis); format: cell-based, rat; details: for neurite outgrowth: substrate of plastic or fibronectin, 21 h
Procedure: The system allows the examination of cell adhesion, cell migration and formation of processes in the treated cells leading to possibly neurite outgrowth. To investigate the latter further, neurite extension from single neurones may be studied. Cells are prepared as in the aggregation study and seeded on a substrate of plastic or fibronectin. The cells are then maintained for a suitable time, whereafter the neurite outgrowth is analysed by a measurement of the neurite extension, for example by a computer-assisted image analysis program. The mean length of the longest neurite of each cell was measured for neurites longer than 10 μM (see FIG. 2). In addition, the mean number of branchpoints per neurite and the mean number of neurites per cell were determined. NCAM Ig1-Ig2 ligands to be tested are added immediately before seeding the cells.
5000 cells/well, corresponding to approximately 4000 cells/cm^2, were seeded in 8 well LabTek Tissue Culture Chamber Slides with a growth surface of Permanox plastic (NUNC A/S, Denmark) or fibronectin (cocultures) and maintained for 20 h as described in Example 7 (1).
To investigate the stimulatory effect on neurite extension, cells were prepared as described and seeded on a substrate of plastic or fibronectin. Cells were then maintained for 21 h and neurite outgrowth was analysed by computer-assisted image analysis using the program Linelength. The mean length of the longest neurite of each cell was measured for neurites longer than 10 μM. In addition, the mean number of branchpoints per neurite and the mean number of neurites per cell were determined.

[2] = tested on: primary hippocampal neurones on monolayers of fibroblasts; test: Neurite outgrowth in cocultures of neurones on fibroblast monolayers with or without NCAM-140; format: cell-based, rat; details: 0.54 or 5.4 μM
Procedure: For cocultures, neurones were seeded on monolayers of fibroblasts, either L-cells or 3T3 cells with or without NCAM-B expression. Neurones were visualised using immunohistochemical staining for growth associated protein 43 kD (GAP43). Briefly, cells were fixed 30 min in 4% paraformaldehyde in phosphate buffered saline (PBS). The primary antibody was rabbit anti-GAP43 1:100 in PBS with 1% fetal bovine serum(FBS), 0.1% bovine serum albumin (BSA), 50 mM glycine, 0.02% NaN3, 2% saponine 1 h at room temperature or overnight at 4° C. The second antibody was biotinylated swine-anti-rabbit immunoglobulins 1:100 in PBS with 1% BSA 1 h at room temperature. The third “layer” was streptavidine coupled to FITC or horse radish peroxidase (HRP) 1:100 1 h at room temperature. Between layers, washings were performed 3×20 min in PBS with 1% BSA. Images of living or stained neurones were captured and analysed by the image analysis program Line Length created at the Protein Laboratory. Putative axons were identified as the longest neurite of each cell. Only neurites longer than […] were considered.
The mean length of neurites on NCAM-expressing fibroblasts was longer than the mean length of neurites on fibroblasts without NCAM expression.

[3] = tested on: primary hippocampal neurones; test: Cell proliferation by BrdU incorporation ELISA; format: cell-based
Procedure: (§1) Cell proliferation was determined by incorporation of 5-bromo-2′-deoxyuridin in a cell proliferation ELISA system (Amersham Life Science) according to the procedure of the manufacturer. Primary hippocampal neurones were seeded in microtiter plates at a density of 33000 cells per well. […] However, the net effect on proliferation depended on the growth status of cell. […] The net effect depends on the growth status of the cells but under the proper circumstances, a stimulation of proliferation will result.

neuroblastoma cells = test: Proliferation of neuroblastoma cells; format: cell-based
PC12 cells = test: Proliferation and neurite outgrowth of PC12 cells; format: cell-based, rat
Procedure: The effect of the ligands on proliferation and cell growth was also tested. […] After this initial promotion of proliferation, the peptides stimulate differentiation by increasing neurite outgrowth and at the same time suppressing proliferation. Thus the net effect on proliferation depends on the growth status of the cells. An effect on proliferation has been shown for primary cell cultures from the hippocampus cells and cultures of rat pheochromocytoma cell line PC12 cells. Accordingly, the ligands stimulate neurite outgrowth from and/or proliferation of NCAM presenting cells.
as §1

[4] = tested on: primary hippocampal cells; test: Cell growth by Cristal Violet staining; format: cell-based; details: 0.8 μM, 48 h
Procedure: Cell growth is another way of monitoring proliferation of the cells. Primary hippocampal cells were seeded into 96 well microtiter culture plates (Nunc A/S) at a density of 20.000 or 40.000 per well in defined medium as described above. Cells were grown for 48 h, centrifuged in order to remove medium, fixed in 3.7% formaldehyde in PBS for 15 min and stained with 0.5% Cristal Violet in 20% methanol for 15 min. Stained cells were thoroughly washed with Milli Q purified water, thereafter residual dye was solubilised with 0.1 M sodium citrate in 50% ethanol pH 4.2 and absorbance measured at 550 nm.

hippocampal cells = test: Aggregate cultures of dissociated hippocampal cells (NCAM mediated cell adhesion); details: for aggregation of cells (number of cell aggregates): 24 h after seeding, higher number of aggregates reflects inhibition of aggregation; for inhibitory effect on aggregation of hippocampal cells: peptides at 180 μM (FIG. 19)
hippocampal neurons = test: Neurite outgrowth from hippocampal neurons, stereological total neurite length per cell (ProcessLength); details: for neurite outgrowth (total neurite length per cell): low density culture
NCAM (20-208) = target: T2, NCAM (20-208) (Rattus norvegicus, UniProt P13596); test: Gel filtration chromatography of NCAM (20-208) dimer formation
T2 construct: made in house

## ASKKPKRNIKA (peptide fragment) [C3]
NCAM Ig1 domain
  binding to the NCAM Ig1 domain: bound the NCAM-Ig1 in solution; also recorded: bind to the NCAM Ig1 domain
[1]
  concentration of maximal neuritogenic effect: 0.54 µM
  neurite outgrowth: strongly stimulated neurite outgrowth; also recorded: increase in neurite outgrowth
[1]; 0.54 μM
  branching of neurites: strongly stimulated
  number of neurites per cell: strongly stimulated
[1]; 0.54 μM, plastic (FIG. 11)
  length of the longest neurite: strongly stimulated
[2]
  NCAM-induced increase in neurite length on NCAM-140 expressing fibroblasts (LBN): no difference between the length of neurites on fibroblasts with or without NCAM expression
  neurite extension on fibroblasts without NCAM expression (LVN): neurite extension was stimulated
[3]; higher concentrations, bell-shaped dose-response curve
  proliferation: inhibited proliferation
Neuroblastoma cells
  proliferation of neuroblastoma cells: promoted proliferation
PC12 cells
  neurite outgrowth of PC12 cells: increased neurite outgrowth
  proliferation of PC12 cells: inhibitory effect on proliferation
[4]
  cell growth: increase cell growth
Hippocampal cells
  aggregation of cells (number of cell aggregates): inhibited aggregation of cells; also recorded: higher number of cell aggregates

## COC(=O)/C=C/c1cc(O)ccc1O [erbstatin analogue, reference compound]
[1]
  effect on the stimulatory effect of C3 on neurite extension: inhibit the stimulatory effect of C3 on neurite extension

## GRILARGEINFK (peptide fragment) [Ig2-p]
Hippocampal cells
  aggregation of cells (number of cell aggregates): inhibited aggregation of cells
Hippocampal neurons; 24 h
  neurite outgrowth (total neurite length per cell): strongly stimulated neurite outgrowth

## GEISVGESKFFL (peptide fragment) [Ig1-p]
Hippocampal cells; 24 h, 250 μg/ml (FIG. 24)
  aggregation of cells: inhibited aggregation of cells
Hippocampal neurons; 24 h, 5 μg/ml (FIG. 24)
  neurite outgrowth: promote neurite outgrowth

## GSILASGSSNFK [P2-4S]
Hippocampal cells; 24 h
  inhibitory effect on aggregation of hippocampal cells: only a slight inhibitory effect
Hippocampal neurons; 24 h
  neurite outgrowth (total neurite length per cell): no neuritogenic effect; also recorded: no stimulatory effect

## ARALNWGAKPK (peptide fragment) [D4]
NCAM Ig1 domain
  binding to the NCAM Ig1 domain: bound the NCAM-Ig1 in solution; also recorded: bind to the NCAM Ig1 domain
[1]
  neurite outgrowth: strongly stimulated neurite outgrowth; also recorded: increase in neurite outgrowth
Hippocampal cells
  aggregation of cells (number of cell aggregates): inhibited aggregation of cells; also recorded: higher number of cell aggregates

## COc1ccc2c(c1)CC[C@@H]1[C@@H]2CC[C@]2(C)[C@@H](NCCCCCCN3C(=O)C=CC3=O)CC[C@@H]12 [U-73122, reference compound]
Hippocampal neurons; 3.6 μM Ig2-peptide dendrimer, Ig1 25 μM, α-FGFR 1:2000, CHD 200 μM, U-73122 5 μM (FIG. 23)
  effect on Ig2-peptide induced neurite outgrowth: completely abrogated

## omega-conotoxin GVIA [reference compound]
[1]
  effect on the stimulatory effect of C3 on neurite extension: inhibit the stimulatory effect of C3 on neurite extension

## AKKERQRKDTQ (peptide fragment) [D3]
NCAM Ig1 domain
  binding to the NCAM Ig1 domain: bound the NCAM-Ig1 in solution; also recorded: bind to the NCAM Ig1 domain
[1]
  neurite outgrowth: strongly stimulated neurite outgrowth; also recorded: increase in neurite outgrowth
Hippocampal cells
  aggregation of cells (number of cell aggregates): inhibited aggregation of cells; also recorded: higher number of cell aggregates

## D3-dendrimer: Four D3 peptide-monomers coupled to a backbone consisting of three lysines (AKKERQRKDTQ; also: dendrimer of four monomers coupled to a backbone of three lysines)
Hippocampal cells
  aggregation of cells (number of cell aggregates): increased the number of aggregates formed

## COc1ccc(CCN(C)CCCC(C#N)(c2ccc(OC)c(OC)c2)C(C)C)cc1OC (stereo not shown) [verapamil, reference compound]
[1]
  effect on the stimulatory effect of C3 on neurite extension: inhibit the stimulatory effect of C3 on neurite extension

## D4-dendrimer: Four D4 peptide-monomers coupled to a backbone consisting of three lysines (ARALNWGAKPK; also: dendrimer of four monomers coupled to a backbone of three lysines)
Hippocampal cells
  aggregation of cells (number of cell aggregates): increased the number of aggregates formed

## pertussis toxin [reference compound]
[1]
  effect on the stimulatory effect of C3 on neurite extension: inhibit the stimulatory effect of C3 on neurite extension

## C3d: Dendrimer of four C3 peptide monomers coupled to a backbone consisting of three lysines (ASKKPKRNIKA; also: dendrimer of four monomers coupled to a backbone of three lysines)
[2]
  NCAM-induced increase in neurite length on NCAM-140 expressing fibroblasts (LBN): inhibited
  neurite extension on fibroblasts without NCAM expression (LVN): stimulated neurite out-growth
[3]; 0.8 μM
  incorporation of BrdU (neuronal proliferation): increased incorporation of BrdU
Hippocampal cells
  aggregation of cells (number of cell aggregates): most potent form
Hippocampal cells; 24 h in culture, 1.07 μM and 2.15 μM
  number of aggregates of primary hippocampal neurones: increase in the number of aggregates formed

## GSILASGESNFK (peptide fragment) [P2-3S]
Hippocampal cells; 24 h
  inhibitory effect on aggregation of hippocampal cells: no inhibitory effect
Hippocampal neurons; 24 h
  neurite outgrowth (total neurite length per cell): no neuritogenic effect; also recorded: no stimulatory effect

B1: Ig1-2: Unmutated recombinant double Ig domain (Ig1-Ig2) of NCAM, NCAM (20-208) (protein)
chain: LQVDIVPSQGEISVGESKFFLCQVAGDAKDKDISWFSPNGEKLSPNQQRISVVWNDDDSSTLTIYNANIDDAGIYKCVVTAEDGTQSEATVNVKIFQKLMFKNAPTPQEFKEGEDAVIVCDVVSSLPPTIIWKHKGRDVILKKDVRFIVLSNNYLQIRGIKKTDEGTYRCEGRILARGEINFKDIQVIV
NCAM (20-208)
  dimer formation (elution in gel filtration): elutes as a dimer
Hippocampal neurons; 24 h
  neurite outgrowth (total neurite length per cell): only slight, if any, effect

B2: mutated double domain: NCAM (20-208) double Ig domain with mutations R192A, R196A and E198A (protein)
chain: B1 chain with R173A, R177A, E179A
Hippocampal neurons; 24 h
  neurite outgrowth (total neurite length per cell): inhibited in a dose dependent manner

Source: US7402560B2, “NCAM binding compounds” (priority 1998, dated 2008)
